Each structure is given as a SMILES string. Numbered stars: 1 amine (or outer) side, 2 acyl side, 3 side chain; on linkers, the order of the positions; unused ones are H or OH. Bridge positions count the residues as written; N and C are the ends. Square brackets hold non-standard residues; d marks the D form. Peptide text beside a SMILES is read from it. * marks the point of attachment. C20 diacid = O=C(O)CCCCCCCCCCCCCCCCCCC(=O)*; γGlu = O=C(O)[C@H](CCC(=O)[*:2])N[*:1]; Hyp = O=C(O)[C@@H]1C[C@@H](O)CN1

This assay concerns the target T1, hAMY3 receptor (Homo sapiens, UniProt O60896+P30988).
T1 sequence (P30988 25-474): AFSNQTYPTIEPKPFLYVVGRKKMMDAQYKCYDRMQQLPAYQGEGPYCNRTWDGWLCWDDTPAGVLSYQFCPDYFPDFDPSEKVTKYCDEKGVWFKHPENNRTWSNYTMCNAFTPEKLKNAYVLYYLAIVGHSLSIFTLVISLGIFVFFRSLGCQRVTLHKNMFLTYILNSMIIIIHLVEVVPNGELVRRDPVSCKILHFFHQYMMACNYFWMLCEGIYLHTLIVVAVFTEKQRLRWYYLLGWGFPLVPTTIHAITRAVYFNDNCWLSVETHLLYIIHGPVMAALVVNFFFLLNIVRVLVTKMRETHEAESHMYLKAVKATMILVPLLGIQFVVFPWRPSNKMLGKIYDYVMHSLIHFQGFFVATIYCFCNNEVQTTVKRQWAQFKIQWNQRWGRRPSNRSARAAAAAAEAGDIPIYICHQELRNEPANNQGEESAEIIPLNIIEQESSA
T1 sequence (O60896 24-148 partner): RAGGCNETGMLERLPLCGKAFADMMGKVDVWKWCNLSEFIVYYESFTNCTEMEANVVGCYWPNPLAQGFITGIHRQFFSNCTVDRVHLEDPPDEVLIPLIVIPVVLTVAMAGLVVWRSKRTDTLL
The experiment in a line: cAMP assay for in vitro receptor activation, hAMY3-R. The assay is classed as cell-based. The note with it: cAMP assay, hAMY3 receptor; read-out: hAMY3R EC50. The method, boiled down:
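Stable hAMY3 cells; DPBS + 0.05% casein + 0.5 mM IBMX; graded compound doses, 30 min, RT; cAMP via HTRF Gs kit, TR-FRET read at 1 h.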
In general terms: Cyclic AMP is a second messenger, typically raised through Gs and lowered through Gi signalling.
Turning to `CC[C@H](C)[C@H](NC(=O)[C@H](CCC(N)=O)NC(=O)[C@H](CC(N)=O)NC(=O)[C@H](C)NC(=O)[C@H](CC(C)C)NC(=O)[C@H](CCCNC(=N)N)NC(=O)[C@H](CCC(N)=O)NC(=O)[C@@H](NC(=O)[C@@H](NC(=O)[C@@H]1CSSC[C@H](NC(=O)CNC(=O)CC[C@H](NC(=O)CCCCCCCCCCCCCCCCCCC(=O)O)C(=O)O)C(=O)N[C@@H](CCCNC(=N)N)C(=O)N[C@@H](Cc2ccccc2)C(=O)NCC(=O)N[C@@H]([C@@H](C)O)C(=O)N1)[C@@H](C)O)C(C)C)C(=O)N[C@@H](Cc1ccc(O)cc1)C(=O)N[C@@H](CCC(N)=O)C(=O)N[C@@H](Cc1ccccc1)C(=O)N[C@H](C(=O)N[C@@H](CC(=O)O)C(=O)N[C@@H](CCCCN)C(=O)N[C@@H](CC(=O)O)C(=O)N[C@@H](CCCCN)C(=O)N[C@@H](CC(=O)O)C(=O)N[C@@H](CC(N)=O)C(=O)N[C@H](C(=O)N[C@@H](C)C(=O)N1CCC[C@H]1C(=O)N[C@@H](CCCNC(=N)N)C(=O)N[C@H](C(=O)N[C@@H](CC(N)=O)C(=O)N[C@H](C(=O)NCC(=O)N1CCC[C@H]1C(=O)N[C@@H](CCC(N)=O)C(=O)NCC(=O)N[C@@H](Cc1ccc(O)cc1)C(N)=O)C(C)C)[C@@H](C)O)C(C)C)[C@@H](C)O` [compound 372] ({C20 diacid-γGlu}-GCRFGTCTVQRLANQIYQFTDKDKDNVAPRTNVGPQGY-NH2; disulfide 2-7), the EC50 amounted to 20 pM.

For the compound `CC[C@H](C)[C@H](NC(=O)[C@H](CCCCN)NC(=O)[C@H](CO)NC(=O)[C@H](CCCNC(=N)N)NC(=O)[C@@H]1CCCN1C(=O)[C@H](C)NC(=O)[C@@H](NC(=O)[C@H](CC(N)=O)NC(=O)[C@H](CC(=O)O)NC(=O)[C@H](CCCCN)NC(=O)[C@H](CC(=O)O)NC(=O)[C@H](CCCCN)NC(=O)[C@H](CC(=O)O)NC(=O)[C@@H](NC(=O)[C@H](Cc1ccccc1)NC(=O)[C@H](CCC(N)=O)NC(=O)[C@H](Cc1ccc(O)cc1)NC(=O)[C@@H](NC(=O)[C@H](CCC(N)=O)NC(=O)[C@H](Cc1c[nH]cn1)NC(=O)[C@H](C)NC(=O)[C@H](CC(C)C)NC(=O)[C@H](CCCNC(=N)N)NC(=O)[C@H](CCC(N)=O)NC(=O)[C@@H](NC(=O)[C@@H](NC(=O)[C@@H]1CSSC[C@H](NC(=O)CN)C(=O)N[C@@H](CCCNC(=N)N)C(=O)N[C@@H]([C@@H](C)O)C(=O)NCC(=O)N[C@@H]([C@@H](C)O)C(=O)N1)[C@@H](C)O)C(C)C)[C@@H](C)CC)[C@@H](C)O)C(C)C)C(=O)NCC(=O)N1CCC[C@H]1C(=O)N[C@@H](CCC(N)=O)C(=O)NCC(=O)N1C[C@H](O)C[C@H]1C(N)=O` [compound 179] (H-GCRTGTCTVQRLAHQIYQFTDKDKDNVAPRSKIGPQG[Hyp]-NH2; disulfide 2-7), the EC50 came to 82 pM.

Turning to `CC(C)C[C@H](NC(=O)[C@H](CCCNC(=N)N)NC(=O)[C@H](CCC(N)=O)NC(=O)[C@@H](NC(=O)[C@@H](NC(=O)[C@@H]1CSSC[C@H](NC(=O)CNC(=O)CC[C@H](NC(=O)CCCCCCCCCCCCCCCCCCC(=O)O)C(=O)O)C(=O)N[C@@H](CCCNC(=N)N)C(=O)N[C@@H](Cc2ccccc2)C(=O)NCC(=O)N[C@@H]([C@@H](C)O)C(=O)N1)[C@@H](C)O)C(C)C)C(=O)N[C@@H](C)C(=O)N[C@@H](Cc1c[nH]cn1)C(=O)N[C@@H](Cc1ccccc1)C(=O)N[C@@H](CC(C)C)C(=O)N[C@@H](Cc1ccc(O)cc1)C(=O)N[C@@H](CCC(N)=O)C(=O)N[C@@H](Cc1ccccc1)C(=O)N[C@H](C(=O)N[C@@H](CC(=O)O)C(=O)N[C@@H](CCCCN)C(=O)N[C@@H](CC(=O)O)C(=O)N[C@@H](CCCCN)C(=O)N[C@@H](CC(=O)O)C(=O)N[C@@H](CC(N)=O)C(=O)N[C@H](C(=O)N[C@@H](C)C(=O)N1CCC[C@H]1C(=O)N[C@@H](CCCNC(=N)N)C(=O)N[C@H](C(=O)N[C@@H](CC(N)=O)C(=O)N[C@H](C(=O)NCC(=O)N1CCC[C@H]1C(=O)N[C@@H](CCC(N)=O)C(=O)NCC(=O)N[C@@H](Cc1ccc(O)cc1)C(N)=O)C(C)C)[C@@H](C)O)C(C)C)[C@@H](C)O` [compound 200] ({C20 diacid-γGlu}-GCRFGTCTVQRLAHFLYQFTDKDKDNVAPRTNVGPQGY-NH2; disulfide 2-7), the 50% effective concentration (EC50) stood at 126 pM.

As usually defined, the EC50 is the concentration giving half of the maximal effect.
